From patent publication US7842678B2, “Compositions comprising oligosaccharides” (priority 2003, dated 2010)

Assays:
[1] = system: VTEC NCTC 12900 adhesion to HT29 cells; test: Adhesion assay of VTEC to HT29 cells, cultures subcultured on three successive days (Example 2); assay type: cell-based, E. coli; conditions: for Inhibition of adhesion of VTEC to HT29 cells (FIG. 2): VTEC subcultured on three successive days; for Inhibition of adhesion of VTEC to HT29 cells (FIG. 1): 2.5 mg ml, plate counting, relative to oligosaccharide-free control
Procedure: VTEC NCTC 12900 was inoculated from frozen stocks into Dulbecco's modified eagle medium (DMEM) with added non-essential amino acids (1% v/v) and foetal bovine serum (5% v/v). The culture was incubated anaerobically at 37° C. for 18 h. A 20 μl aliquot was transferred into 2 ml of fresh DMEM, and incubated under the same conditions for 24 h. This was repeated twice more, so that the organism was subcultured on three successive days. An adhesion assay was then carried out as described previously, using 2.5 mg ml methyl-α-D-mannopyrannoside and D-mannose, and the adhered bacteria were enumerated by using plate counting.
Alpha 1,2 mannobiose and alpha 1,6 mannobiose were assayed for anti-adhesive activity using the method described hereinabove, with the modification that the VTEC cultures were subcultured on three successive days as described above.
Further oligosaccharides (pectic oligosaccharides, isomalto-oligosaccharides, GOS, partially hydrolyzed guar gum, xylo oligosaccharides and lactulose) have been tested for anti-adhesive activity against E. coli, both VTEC and EPEC pathovars. Methods were as described previously but with three subcultures included in the culture preparation stage, as described above. Compounds tested included GOS and pectic oligosaccharides that had been further purified by ultrafiltration to remove nitrates.

[2] = system: VTEC adhesion to HT29 cells; test: Adhesion assay of VTEC to HT29 cell monolayers (Example 1); assay type: cell-based, E. coli
Procedure: (§1) HT29 cells were grown to 95-100% confluence in 12-well tissue culture plates. Bacterial cultures were grown in tissue culture medium, anaerobically at 37° C. These incubation conditions promoted expression of adhesions by the bacteria. The bacteria (in buffer, with or without the test oligosaccharide) were added to the cell monolayers and incubated for 2 h at 37° C. aerobically under 5% CO2. After incubation, the cell layers were washed three times in buffer and the adherent bacteria quantified. Assays were performed in triplicate
(§2) The tested oligosaccharides were methyl-α-mannopyrannoside and CGMP.
(§3) After the adhesion and washing stages, the cells were suspended and vigorously mixed to break up clumps. The resulting suspension was then plated onto non-selective agar media appropriate for the test organism.
(§4) The Initial inoculum was 7.3 log cfu ml^−1 (VTEC) and 7.0 log cfu ml^−1 (EPEC).

[3] = system: EPEC adhesion to HT29 cells; test: Adhesion assay of EPEC to HT29 cell monolayers (Example 1); assay type: cell-based, E. coli; conditions: oligosaccharide concentration 0.25%; initial inoculum 7.0 log cfu ml^−1; buffer only 5.3; 2 h at 37° C.
Procedure: as §1, §2, §3, §4

[4] = system: E. coli EPEC (O119:H4) adhesion to HT29 cells; test: Adhesion assay of carbohydrates against E. coli EPEC on HT29 monolayers (Example 3); assay type: cell-based; conditions: carbohydrate solution 5 mg/ml in PBS mixed 1:1 with bacterial suspension; 2 hours at 37° C. aerobically; relative to carbohydrate-free control
Procedure: The saccharides were tested against one strain of E. coli VTEC (0157:1H7 strain NCTC 12900) and one strain of E. coli EPEC (O119:H4).
E. coli broth cultures for adhesion assays were grown in DMEM supplemented with 5% v/v FBS and 1% non-essential amino acid solution (SDMEM). For each strain, a broth was inoculated from a slope culture and incubated anaerobically at 37° C. for 18-24 h. The overnight culture was then inoculated (1% v/v) into fresh SDMEM and incubated for a further 18-24 h under the same conditions. This was repeated once more. On the day of the assay, a 10% v/v inoculum was placed into pre-warmed SDMEM and incubated for 4 h anaerobically at 37° C.
A culture of the test strain was prepared as described above, then diluted 1:500 in PBS. The viable count of the diluted suspension was determined by spread plating onto PCA, with decimal dilutions carried out in MRD as necessary. The carbohydrates to be tested were dissolved in PBS (5 mg/ml) and sterilised by passing through a 0.2 μm syringe filter. […] A 1 ml aliquot of PBS was then pipetted into each well, and pipette mixed until the monolayer was completely dislodged and clumps broken up (as determined visually). […]
Data processing: Viable counts were calculated for all wells and the inoculum, and expressed as colony forming units per ml (cfu/ml). For each test, the mean and standard error of the triplicate wells were calculated. […]

Compound	Inhibition of adhesion of VTEC to HT29 cells (FIG. 2) [1]	Inhibition of adhesion of VTEC to HT29 cells (FIG. 1) [1]	also measured
OC[C@H]1O[C@H](O[C@@H]2C(O)O[C@H](CO)[C@@H](O)[C@@H]2O)[C@@H](O)[C@@H](O)[C@@H]1O (stereo partly drawn) [Alpha 1,2 mannobiose]	Inhibition of adhesion was detected	–	–
O=C[C@@H](O)[C@@H](O)[C@H](O)[C@H](O)CO [D-mannose]	–	good inhibition of adhesion	–
OC[C@H]1O[C@H](OC[C@H]2O[C@H](O)[C@@H](O)[C@@H](O)[C@@H]2O)[C@@H](O)[C@@H](O)[C@@H]1O [alpha 1,6 mannobiose]	Inhibition of adhesion was detected	–	–
CO[C@H]1O[C@H](CO)[C@@H](O)[C@H](O)[C@@H]1O [methyl-α-mannopyranoside, Methyl-α-D-mannopyranoside]	Inhibition of adhesion	good inhibition of adhesion	Reduction in adhesion (in words) ([2]; oligosaccharide 0.25%, pathovar not given): reduction in adhesion; Viable count of adhered VTEC ([2]; oligosaccharide concentration 0.25%, initial inoculum 7.3 log cfu ml^−1, buffer only 6.3, 2 h at 37° C.): 4.8 log cfu ml^−1; Viable count of adhered EPEC [3]: 5.1 log cfu ml^−1
β-1,3-glucan [curdlan]	–	–	Anti-adhesive activity against enteropathogenic E. coli EPEC (FIG. 5) [4]: positive
